Measurements reported in patent publication US6548543B1, “Remedies or preventives containing cyclopentenone compounds as the active ingredient” (Takara Shuzo Co., Ltd., priority 1998, dated 2003).

Tests used:
[1] = system: tumor necrosis factor (TNF)-α; test: Endotoxin shock model, serum TNF-α after LPS; format: in vivo, CDF1 mice
Procedure: (1) A model for endotoxin shock was constructed using CDF1 mice (8 weeks old, female, purchased from Japan SLC). Distilled water (control), or 10 mg/kg of diisopropionylcyclopentenone or diisobutyrylcyclopentenone was subcutaneously administered to a mouse. 20 μg of lipopolysaccharide (LPS; Sigma) was intraperitoneally administered to each mouse 30 minutes after the administration. Blood was collected from the mouse 1.5 hours after the administration with LPS. The amount of tumor necrosis factor (TNF)-α in a serum separated from the collected blood was measured using a commercially available ELISA kit (R&D). Each group consisted of 4 mice.
(2) A model for endotoxin shock was constructed by intraperitoneally administering 20 μg of LPS to a CDF1 mouse (8 weeks old, female). 30 or 100 mg/kg of dipropionylcyclopentenone or diisobutyrylcyclopentenone was orally administered 30 minutes before the administration with LPS. Blood was collected from the mouse 1.5 hours after the administration with LPS. The amount of TNF-α in a serum separated from the collected blood was measured using an ELISA kit. Each group consisted of 4 mice.

Mouse leukemia P-388 = test: Survival of mice given mouse leukemia P-388; format: in vivo, DBA/2 mouse; settings: P-388, single dose 10 mg/kg intraperitoneal
Procedure: (1) Mouse leukemia P-388 (1.1×10^6 cells/mouse) was intraperitoneally administered to a 7-weeks old female DBA/2 mouse. Immediately after the administration, a single dose of 10 mg/kg dipropionylcyclopentenone was intraperitoneally administered. On the other hand, saline was intraperitoneally administered to a control group in a similar manner. Survival number of mice, average days of survival and prolongation rate were calculated for 2 groups each consisting of 8 mice.

[2] = system: spleen lymphocytes stimulated with Ehrlich ascites carcinoma cells; test: Cancer cell-specific proliferation of spleen lymphocytes from treated tumor-bearing mice; format: in vivo, ddY mice; settings: for 3H-thymidine uptake: 10 mg/kg intraperitoneal
Procedure: ddY mice (female, 7 weeks old) were purchased from Japan SLC and pre-bred 1 week before using in experiments.
1×10^6 Ehrlich ascites carcinoma cells were intraperitoneally inoculated to each mouse. 10 mg/kg of cyclopentene, 30 mg/kg of GM or 10 mg/kg of dipropionylcyclopentene was intraperitoneally administered to the mouse on the day after the inoculation. Saline was administered to a control mouse.
A spleen was taken out from the mouse 10 days after the inoculation with cancer cells, finely minced and suspended in RPMI-1640 medium (Gibco) containing 10% FCS (HyClone) to obtain a single cell suspension. Adhesive cells in the cell suspension adhered to a plastic Petri dish were removed and non-adhesive cells were used as spleen lymphocytes.
The spleen lymphocytes were suspended in RPMI-1640 medium containing 10% FCS at a concentration of 2×10^6/ml. 100 μl/well of the suspension was seeded into a microtiter plate.
Stimulated cells were prepared as follows. Mitomycin C (Kyowa Hakko Kogyo) was added to a concentration of 50 μg/ml to Ehrlich ascites carcinoma cells suspended in RPMI-1640 medium at a concentration of 2×10^6 cells/ml. The cells were treated at 37° C. for 30 minutes, washed twice and then suspended in RPMI-1640 medium containing 10% FCS to prepare stimulated cells at a concentration of 2×10^6 cells/ml. 100 μl of the thus prepared stimulated cells was overlaid onto each well of the plate into which 100 μl/well of the spleen lymphocytes had been added. The plate was incubated at 37° C. for 5 days in a 5% CO2 incubator. 37 kBq of ^3H-thymidine (Daiichi Pure Chemicals) was added to the well to pulse-label the cells on the day before the completion of the cultivation. After cultivation, the cells were harvested on a glass filter to measure the radioactivity.

[3] = system: delayed hypersensitivity pedal edema; test: Delayed hypersensitivity (DTH) with sheep erythrocytes; format: in vivo, C57BL/6 mice; settings: once a day for 3 days
Procedure: C57BL/6 mice (male, 7 weeks old, weighing about 25 g) were purchased from Japan SLC and pre-bred for 1 week before using in experiments.
Sheep erythrocytes (Shimizu Laboratory Supplies) as raising antigens were washed three times with saline (Otsuka Pharmaceutical) and suspended in saline at a concentration of 1×10^9 cells/ml. 200 μl of the suspension was intraperitoneally injected into the mouse for sensitization with the antigen. 40 μl of similarly prepared antigen was injected to the sole of right paw 5 days after the sensitization for antigenic induction to induce pedal edema.
Dipropionylcyclopentenone dissolved in saline at a varying concentration was intraperitoneally or orally administered to 5 mice per group once a day for 3 days from the day of sensitization with the antigen. The volume of the right foot of the mouse was measured using an instrument for measuring pedal volume (Ugo Basile) 2 days after the antigenic induction and used as an index of DTH. The measurements were expressed as the rate of increase calculated according to the following equation based on the volume of the right foot of each mouse measured before the antigenic induction.
Rate of increase=(volume of right foot after antigenic induction−volume of right foot before antigenic induction)/volume of right foot before antigenic induction

SMILES: CCC(=O)OC1C=CC(=O)C1OC(=O)CC (stereo not shown)
- TNF-α production compared with control group (statement) ([1]; 10 mg/kg subcutaneous): significantly suppressed
- Amount of TNF mean ± SE ([1]; 10 mg/kg subcutaneous 30 minutes before LPS, serum 1.5 hours after LPS): 4.61 ± 0.57 ng/mL
- TNF mean ± SE ([1]; 30 mg/kg oral 30 minutes before LPS, serum 1.5 hours after LPS): 2.95 ± 0.14 ng/mL
- TNF mean ± SE ([1]; 100 mg/kg oral 30 minutes before LPS, serum 1.5 hours after LPS): 1.26 ± 0.15 ng/mL
- TNF production compared with control group (statement) ([1]; oral 30 or 100 mg/kg): suppressed the TNF production in a dose-dependent manner
- Average days of survival (Mouse leukemia P-388): 13.9 days
- Prolongation rate (Mouse leukemia P-388): 137.0%
- 3H-thymidine uptake ([2]; no stimulation with cancer cell): 9250 CPM
- 3H-thymidine uptake ([2]; stimulation with cancer cell): 20748 CPM
- Growth of spleen lymphocytes on stimulation with cancer cells (statement) ([2]; mice administered intraperitoneally): significantly enhanced
- Suppression of edema in foot, DTH (FIG. 6) ([3]; 1 mg/kg intraperitoneal): Tendency to suppress the edema in the foot
- Suppression of edema in foot, DTH (FIG. 6) ([3]; 10 mg/kg intraperitoneal): significant suppression
- Suppression of edema in foot, DTH (FIG. 6) ([3]; 30 mg/kg oral): significant suppression
